What all share (experiment): NCI tumour cell line growth inhibition, 48 h
For assay [1], the system named is A498 renal.
The test system of assay [2] is MDA-MB-435.
Assay [3] concerns NCI-H23 lung.
Assay [4] deals with OVCAR-8 ovarian.
Assay [5] relates to HCT-15 colon.
In assay [6] the test system is HOP-62 NSCLC.
The test system of assay [7] is NCI-H460 lung.
Assay [8] concerns DU-145 prostate.
In assay [9] the test system is RPMI-8226 leukemia.
Assay [10] concerns SNB-19 CNS.

The structures appear in SMILES notation.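 A five-concentration, 48-hour dose response in 96-well plates underlies each endpoint, interpolated linearly between surrounding concentrations. Abbreviation: GI50, concentration required for 50% inhibition of growth. At the TGI there is no net growth.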

As for `CS(=O)(=O)c1ccc(-c2cnc(N)c(C(=O)Nc3ccccc3)n2)cc1`, the GI50 in [1] was 6.59 µM; in assay [2], > 100 µM; in [3], 4.84 µM; in assay [4] it was > 45 µM; in [5], 5.92 µM; in [6] it was 18.8 µM. The GI50 in assay [7] is 10.7 µM; in assay [8] it was 8.35 µM; in [9] it was > 100 µM; in assay [10], > 81.5 µM. The TGI in assay [1], in [2], in [3], in [4], in assay [5] and in [6] was > 100 µM each time. For the same compound, the TGI in [7], in [8], in [9] and in [10] was > 100 µM each time.

For the compound `COC(=O)c1cc(-c2cc(OC)c(OC)c(OC)c2)[nH]c1N/N=C/c1c(Cl)cccc1Cl`, the GI50 is 0.683 µM in assay [1]; 0.247 µM in [2]; 1.25 µM in assay [3]; 1.48 µM in assay [4]; 16 µM in assay [5]; 2.1 µM in assay [6]. Besides, the GI50 is 1.48 µM in assay [7], 1.85 µM in assay [8], 1.94 µM in assay [9] and 3.37 µM in assay [10]. The TGI in assay [1] is 2.46 µM; in [2] it was 8.61 µM; in assay [3], 7.78 µM; in assay [4] it was 20.3 µM; in assay [5], > 100 µM; in assay [6] it was 13 µM. Besides, the TGI in assay [7] is 18.3 µM; in [8] it was 16.3 µM; in assay [9], > 34.4 µM; in [10] it was 21.4 µM.

Turning to `Cc1nc2cnc3cc(F)c(-c4ccc(Oc5ncccn5)cc4Cl)cc3c2n1[C@H]1CCN(C(=O)CO)C[C@@H]1F`, the GI50 in assay [1] is 4.58 µM; in assay [2] it was 0.0692 µM; in assay [3] it was 0.32 µM; in assay [4], 7.35 µM; in [5], 3.6 µM; in assay [6], 0.642 µM. Besides, the GI50 was 2.54 µM in [7], 4.36 µM in assay [8], 1.35 µM in assay [9] and 4.89 µM in [10]. Besides, the TGI is > 84.9 µM in assay [1]; > 60.7 µM in assay [2]; 13.7 µM in assay [3]; > 100 µM in [4]; > 100 µM in assay [5]; 49.3 µM in assay [6]. The TGI in assay [7] was > 100 µM; in [8], > 100 µM; in assay [9] it was 13.9 µM; in assay [10] it was > 100 µM.

With `NC1=C(Br)C(=O)c2ncccc2C1=O`, the TGI was found to be 7.99 µM in assay [1]; 0.313 µM in assay [2]; 0.668 µM in assay [3]; 2.24 µM in assay [4]; 1.65 µM in assay [5]; 1.67 µM in [6]. The TGI in assay [7] was 1.16 µM; in assay [8] it was 2.14 µM; in [9], 3.81 µM; in [10], 2.41 µM. The GI50 in assay [2] was 0.168 µM; in assay [8], 0.709 µM.

For the compound `C/C([O-])=C1\Cc2ccccc2C1=O.C/C([O-])=C1\Cc2ccccc2C1=O.CC[O-].CC[O-].[Ti+4]`, the GI50 was 13.4 µM in assay [1]; 17.6 µM in [2]; 20.2 µM in [3]; 12.9 µM in [4]; 11.8 µM in assay [5]; 13 µM in assay [6]. Moreover, the GI50 is 10.3 µM in assay [7], 26.4 µM in assay [8], 14.8 µM in [9] and 17.4 µM in assay [10]. The TGI in assay [1] was determined as 31.5 µM; in assay [2] it was 43 µM; in assay [3], 62.2 µM; in [4] it was 50.4 µM; in assay [5], 79.4 µM; in assay [6], 50.3 µM. Besides, the TGI is 44.7 µM in assay [7], > 100 µM in [8], 68.8 µM in assay [9] and 38.5 µM in assay [10].

As to `C=C1CC2(C[C@@H](c3ccccc3)O[C@@H](c3ccccc3)C2)OC1=O` (some centres not stated), the TGI stood at 23.5 µM in [1]; 7.48 µM in assay [2]; 7.72 µM in [3]; 7.48 µM in assay [4]; 5.91 µM in assay [5]; 28.1 µM in [6]. The TGI in assay [7] was 23.3 µM; in assay [8], 21.4 µM; in assay [9], 2.57 µM; in [10], 29.7 µM.

On to `CC1=CCC(OC(=O)C(C)(C)CCC(O)(C(=O)OC2(C(C)C)CCC3(C)OC3C2)C(C)C)(C(C)C)CC1` (configuration not stated), for which the GI50 is 0.0508 µM in assay [1]; 0.355 µM in assay [2]; 0.113 µM in assay [3]; 0.611 µM in [4]; 0.148 µM in assay [5]; 0.615 µM in assay [6]. Further, the GI50 in [7] is 0.57 µM; in [8] it was 0.23 µM; in assay [9], 0.234 µM; in assay [10], 1.14 µM. The TGI worked out at 0.935 µM in [1]; 1.04 µM in assay [2]; 0.301 µM in assay [3]; 15.5 µM in assay [4]; 0.688 µM in assay [5]; 1.63 µM in assay [6]. Moreover, the TGI was found to be 1.39 µM in [7], 0.451 µM in assay [8], 8.85 µM in [9] and 5.43 µM in [10].

In the case of `CC(C)(O)C1CCC(Nc2ccc3ncc(-c4cccc(C(F)(F)F)c4)n3n2)CC1` (configuration not stated), the GI50 in [1] is 1.48 µM; in assay [2], 2.06 µM; in assay [3] it was 3.16 µM; in assay [4] it was 2.97 µM; in assay [5] it was 2.17 µM; in [6], 2.37 µM. Besides, the GI50 was 2.7 µM in assay [7], 3.52 µM in assay [8], 0.266 µM in [9] and 4.36 µM in assay [10]. For the same compound, the TGI in assay [1] is 4.49 µM; in [2] it was > 100 µM; in assay [3], 30.2 µM; in assay [4], 13.4 µM; in assay [5] it was 11.3 µM; in assay [6], 11.8 µM. The TGI in [7] came out at 12.1 µM; in assay [8], 14.8 µM; in [9], 0.79 µM; in [10] it was 21.8 µM.

Regarding `O=C1c2ccc3c4c5ccc(c24)C(=O)N1CCCOCCCCOCCCNCc1ccc(cc1)CNCCCOCCCCOCCCN(C3=O)C5=O`, the GI50 in assay [1] was 7.89 µM; in assay [2], 0.873 µM; in assay [3], 0.93 µM; in assay [4] it was 1.06 µM; in [5], 0.926 µM; in assay [6] it was 1.15 µM. Further, the GI50 is 0.972 µM in assay [7], 0.886 µM in assay [8], 0.93 µM in assay [9] and 0.991 µM in assay [10]. Moreover, the TGI in [1] was 15 µM; in [2] it was 1.59 µM; in assay [3] it was 1.81 µM; in [4] it was 2.74 µM; in assay [5] it was 1.97 µM; in [6] it was 3.31 µM. Further, the TGI in assay [7] worked out at 2 µM; in [8] it was 1.73 µM; in [9] it was 2.49 µM; in [10], 2.27 µM.

As for `c1cc(CCN2CCCCC2)ccn1`, the TGI in assay [1], in assay [2], in assay [3], in assay [4], in [5] and in [6] was > 100 µM each time. Further, the TGI in assay [7], in assay [8], in assay [9] and in assay [10] was > 100 µM each time.

Turning to `C[C@]12CC[C@@H]3c4ccc(O)cc4CC[C@H]3[C@@H]1CC[C@@H]2NS(=O)(=O)c1cccc(C(F)(F)F)c1`, the GI50 in [1] is 2.7 µM; in assay [2], 2.8 µM; in assay [3] it was 3.76 µM; in assay [4], 4.65 µM; in assay [5], 2.17 µM; in assay [6] it was 5.18 µM. Moreover, the GI50 in assay [7] is 2.6 µM; in assay [8], 5.83 µM; in [9], 3.26 µM; in assay [10], 4.64 µM. Further, the TGI came out at 8.75 µM in assay [1]; 8.62 µM in assay [2]; 15.8 µM in assay [3]; 19.3 µM in assay [4]; 5.23 µM in assay [5]; 17.9 µM in assay [6]. The TGI is 6.79 µM in assay [7], 18.4 µM in assay [8], 14.2 µM in [9] and 18.2 µM in assay [10].

As for `Cc1nc2sc(C(=O)Nc3cccc4ccccc34)c(N)c2cc1C(=O)/C=C/c1ccccc1`, the GI50 in [1] is 0.337 µM; in [2], 0.116 µM; in assay [3], 0.862 µM; in assay [4] it was 0.534 µM; in [5] it was 0.185 µM; in assay [6], 0.311 µM. For the same compound, the GI50 in assay [7] is 0.411 µM; in [8], 0.822 µM; in [9], 0.14 µM; in [10] it was 0.534 µM. The TGI is 1.87 µM in [1]; 0.274 µM in assay [2]; 4.07 µM in assay [3]; > 13.4 µM in [4]; 0.789 µM in assay [5]; 2.71 µM in assay [6]. Also, the TGI in [7] was 2.34 µM; in [8], 3.6 µM; in assay [9], 0.5 µM; in assay [10], > 17 µM.

Turning to `Cn1c(=O)c(Oc2ccc(F)cc2F)cc2cnc(NC(CO)CO)nc21`, the GI50 in assay [1], in assay [2], in assay [3], in assay [4], in assay [5] and in assay [6] was > 25 µM in each case. For the same compound, the GI50 in assay [7], in assay [8], in assay [9] and in [10] was > 25 µM each time. The TGI in assay [1], in assay [2], in assay [3], in assay [4], in [5] and in assay [6] was > 25 µM each time. The TGI in assay [7], in assay [8], in [9] and in assay [10] was > 25 µM throughout.
